Assay results from patent US20220249463A1, “METHODS OF ALTERING CARDIAC REMODELING USING COMPOUNDS THAT PROMOTE GLUCOSE OXIDATION” (IMBRIA PHARMACEUTICALS, INC., priority 2019, published 2022).

Test: Stability of CV-8972 in aqueous solution at different concentrations and pH
Type: physicochemical
Protocol: The stability of CV-8972 was analyzed. Aqueous samples containing CV-8972 at different concentrations and pH were incubated for various periods and analyzed.
Form A of CV-8972 were analyzed for stability in aqueous solution. Aqueous samples containing CV-8972 at different concentrations and pH were incubated for various periods and analyzed.

[1] = 289-MBA-15-A 2 mg/mL pH 6 (Form B), 22 hrs, pH 6.7
[2] = 289-MBA-15-A 2 mg/mL pH 7 (Form B), 0 hrs, pH 6.5
[3] = 289-MBA-15-A 2 mg/mL pH 7 (Form B), 1 hrs, pH 6.6
[4] = 289-MBA-15-A 2 mg/mL pH 7 (Form B), 4 hrs, pH 6.5
[5] = 289-MBA-15-A 10 mg/mL pH 6 (Form B), 0 hrs, pH 6
[6] = 289-MBA-15-A 10 mg/mL pH 6 (Form B), 1 hrs, pH 6.1
[7] = 289-MBA-15-A 10 mg/mL pH 6 (Form B), 4 hrs, pH 6
[8] = 289-MBA-15-A 10 mg/mL pH 6 (Form B), 6 hrs, pH 5.9
[9] = 289-MBA-15-A 10 mg/mL pH 6 (Form B), 22 hrs, pH 5.9
[10] = 289-MBA-15-A 10 mg/mL pH 7 (Form B), 0 hrs, pH 7.4
[11] = 289-MBA-15-A 10 mg/mL pH 7 (Form B), 1 hrs, pH 7.4
[12] = 289-MBA-15-A 10 mg/mL pH 7 (Form B), 4 hrs, pH 7.4
[13] = 289-MBA-15-A 10 mg/mL pH 7 (Form B), 6 hrs, pH 7.3
[14] = Form A, aqueous, 4.2 mg/mL, Initial pH = 2.3, 0 hrs
[15] = Form A, aqueous, 4.2 mg/mL, Initial pH = 2.3, 1 hrs
[16] = Form A, aqueous, 4.2 mg/mL, Initial pH = 2.3, 2 hrs
[17] = Form A, aqueous, 4.2 mg/mL, Initial pH = 2.3, 6 hrs
[18] = Form A, aqueous, 12.5 mg/mL, Initial pH = 2.1, 0 hrs
[19] = Form A, aqueous, 12.5 mg/mL, Initial pH = 2.1, 1 hrs
[20] = Form A, aqueous, 12.5 mg/mL, Initial pH = 2.1, 2 hrs
[21] = Form A, aqueous, 12.5 mg/mL, Initial pH = 2.1, 6 hrs
[22] = Form A, aqueous, 21 mg/mL, Initial pH = 2.0, 0 hrs
[23] = Form A, aqueous, 21 mg/mL, Initial pH = 2.0, 1 hrs
[24] = Form A, aqueous, 21 mg/mL, Initial pH = 2.0, 2 hrs
[25] = Form A, aqueous, 21 mg/mL, Initial pH = 2.0, 6 hrs

## COc1ccc(CN2CCN(CCOC(=O)c3cccnc3)CC2)c(OC)c1OC [CV-8972, 2-(4-(2,3,4-trimethoxybenzyl)piperazin-1-yl)ethyl nicotinate]
[1]
  Retention Time 2.2: 7.72
  Retention Time 2.6: 1.13
  Retention Time 4.2: 0.86
  Retention Time 4.7: 1.14
  Retention Time 5.6: 89.15
[2]
  Retention Time 2.2: 1.62
  Retention Time 4.2: 0.9
  Retention Time 5.6: 97.48
[3]
  Decrease in purity of CV-8972 between time points: 2.02
  Retention Time 2.2: 3.16
  Retention Time 4.2: 0.89
  Retention Time 4.7: 0.49
  Retention Time 5.6: 95.46
[4]
  Decrease in purity of CV-8972 between time points: 1.54
  Retention Time 2.2: 4.27
  Retention Time 2.6: 0.53
  Retention Time 4.2: 0.66
  Retention Time 4.7: 0.62
  Retention Time 5.6: 93.92
[5]
  Retention Time 2.2: 3.3
  Retention Time 2.6: 0.6
  Retention Time 4.2: 0.26
  Retention Time 4.7: 0.48
  Retention Time 5.6: 95.36
[6]
  Decrease in purity of CV-8972 between time points: 0.55
  Retention Time 2.2: 3.76
  Retention Time 2.6: 0.65
  Retention Time 4.2: 0.25
  Retention Time 4.7: 0.53
  Retention Time 5.6: 94.81
[7]
  Decrease in purity of CV-8972 between time points: 0.12
  Retention Time 2.2: 3.97
  Retention Time 2.6: 0.59
  Retention Time 4.2: 0.19
  Retention Time 4.7: 0.56
  Retention Time 5.6: 94.69
[8]
  Decrease in purity of CV-8972 between time points: 0.3
  Retention Time 2.2: 4.3
  Retention Time 2.6: 0.54
  Retention Time 4.2: 0.17
  Retention Time 4.7: 0.6
  Retention Time 5.6: 94.39
[9]
  Decrease in purity of CV-8972 between time points: 0.46
  Retention Time 2.2: 4.53
  Retention Time 2.6: 0.69
  Retention Time 4.2: 0.19
  Retention Time 4.7: 0.65
  Retention Time 5.6: 93.93
[10]
  Retention Time 2.2: 6.2
  Retention Time 2.6: 1.16
  Retention Time 4.2: 0.27
  Retention Time 4.7: 0.87
  Retention Time 5.6: 91.5
[11]
  Decrease in purity of CV-8972 between time points: 5.32
  Retention Time 2.2: 10.47
  Retention Time 2.6: 1.65
  Retention Time 4.2: 0.25
  Retention Time 4.7: 1.44
  Retention Time 5.6: 86.18
[12]
  Decrease in purity of CV-8972 between time points: 3.82
  Retention Time 2.2: 13.64
  Retention Time 2.6: 1.93
  Retention Time 4.2: 0.19
  Retention Time 4.7: 1.89
  Retention Time 5.6: 82.36
[13]
  Decrease in purity of CV-8972 between time points: 2.99
  Retention Time 2.2: 15.66
  Retention Time 2.6: 2.57
  Retention Time 4.2: 0.2
  Retention Time 4.7: 0.2
  Retention Time 5.6: 79.37
[14]
  Retention Time 3.9: 5.35
  Retention Time 5.4: 94.65
[15]
  % change from t0 of RT 5.4: 1.41%
  Retention Time 3.9: 4.02
  Retention Time 5.4: 95.98
[16]
  % change from t0 of RT 5.4: −3.66%
  Amount of peak at retention time 1.9: 3.72
  Retention Time 3.9: 5.09
  Retention Time 5.4: 91.19
[17]
  % change from t0 of RT 5.4: −10.21%
  Amount of peak at retention time 1.9: 9.71
  Retention Time 3.9: 5.3
  Retention Time 5.4: 84.99
[18]
  Retention Time 3.9: 1.79
  Retention Time 5.4: 98.21
[19]
  % change from t0 of RT 5.4: −1.02%
  Amount of peak at retention time 1.9: 1.38
  Retention Time 3.9: 1.41
  Retention Time 5.4: 97.21
[20]
  % change from t0 of RT 5.4: −2.35%
  Amount of peak at retention time 1.9: 2.43
  Retention Time 3.9: 1.67
  Retention Time 5.4: 95.9
[21]
  % change from t0 of RT 5.4: −8.79%
  Retention Time 2.2: 1.04
  Retention Time 3.9: 1.74
  Retention Time 5.4: 89.58
[22]
  Retention Time 3.9: 1.12
  Retention Time 5.4: 98.88
[23]
  % change from t0 of RT 5.4: −0.86%
  Amount of peak at retention time 1.9: 1.03
  Retention Time 3.9: 0.94
  Retention Time 5.4: 98.03
[24]
  % change from t0 of RT 5.4: −1.79%
  Amount of peak at retention time 1.9: 1.9
  Retention Time 3.9: 1
  Retention Time 5.4: 97.11
[25]
  % change from t0 of RT 5.4: −6.78%
  Retention Time 2.2: 0.83
  Retention Time 3.9: 0.96
  Retention Time 5.4: 92.18
